Test system: hypertriglyceridemic patients with cardiovascular disease or at high risk for cardiovascular disease
Details: human, in vivo
Text: Compliance Control: Unless clear contraindications arise, patients were strongly encouraged to adhere to their treatment regimen with the study drug for the duration of the trial. Any interruptions of therapy were, if possible, brief (e.g., <4 weeks) and only for clinically indicated reasons, such as adverse events. Discontinuations were discouraged as much as possible. Any discontinuations were based on compelling clinical reasons. For every patient, an assessment of compliance to the study drug treatment regimen was obtained at each scheduled visit. Study medication was dispensed in amounts exceeding the amount required for the study. Patients were instructed to return all unused study medication at the next visit. Compliance to the study drug regimen was evaluated at each visit by counting unused capsules. Discrepancies were evaluated and discussed with each patient to assess compliance. […] At the end of the study, the final study medication compliance was determined by unused capsule count. […]
Occurrence of an outcome event according to the judgment of the investigator was not considered a valid reason for study drug discontinuation. Patients whose treatment with study medication was discontinued early, and had not withdrawn consent, stayed in the study and were monitored until the end of the study. […]

SMILES: CC/C=C\C/C=C\C/C=C\C/C=C\C/C=C\CCCC(=O)OCC [AMR101, eicosapentaenoic acid ethyl ester]
- Early study drug discontinuation: adverse event: 9.2%

From US12427134B2, “Methods of reducing the risk of cardiovascular events in a subject with atrial fibrillation and/or atrial flutter” (priority 2019, dated 2025)
